Source: ChEMBL document CHEMBL1255553, “Unusual antimalarial meroditerpenes from tropical red macroalgae” (Bioorg Med Chem Lett, 2010)
Values after ≈ are worked out from the molar mass of the structure shown.

Assays:
Plasmodium falciparum = experiment: Antimalarial activity against Plasmodium falciparum; type: functional, organism-based
Staphylococcus aureus = experiment: Antimicrobial activity against methicillin-resistant Staphylococcus aureus; type: functional
Enterococcus faecium = experiment: Antimicrobial activity against vancomycin-resistant Enterococcus faecium; type: functional
Candida albicans = experiment: Antimicrobial activity against amphotericin B-resistant Candida albicans; type: functional
CCRF-CEM = experiment: Anticancer activity against human CCRF-CEM cells; type: functional, cell-based
SHP77 = experiment: Anticancer activity against human SHP77 cells; type: functional, cell-based

For `CC1=C2Cc3cc(ccc3O)C(=O)O[C@H](C(C)(C)Br)CC[C@](C)(O)[C@H](Br)CC[C@]2(C)[C@@H](Br)CC1`, which IC50 (Plasmodium falciparum) is on record?
The IC50 was 0.7 µM.

What about the MIC (Staphylococcus aureus) of the same compound?
The MIC was 5.9 µM (≈ 3.93 µg/mL).

And the MIC (Enterococcus faecium)?
The MIC was 5.9 µM (≈ 3.93 µg/mL).

And the MIC (Candida albicans)?
The MIC was 49 µM (≈ 32.6 µg/mL).

How did the IC50 (Plasmodium falciparum) turn out when `CC1=C2Cc3cc(ccc3O)C(=O)O[C@H](C(C)(C)O)CC[C@]3(C)O[C@H]3C/C=C(\C)C2CC1` (some centres not stated) was run?
The IC50 was over 100 µM.

And the MIC (Candida albicans)?
Its MIC is over 500 µM.

Which IC50 (Plasmodium falciparum) does the source give for `Cc1cc(O)c(C)c(CC[C@](C)(O)CCC[C@H](C)CCC[C@H](C)CCCC(C)C)c1O` here?
Its IC50 is 190 µM.

What about the MIC (Staphylococcus aureus) of the same compound?
Its MIC is over 500 µM.

And the MIC (Enterococcus faecium)?
The MIC was over 500 µM.

What does the source list for `Cc1cc(O)cc(CC[C@](C)(O)CCC[C@H](C)CCC[C@H](C)CCCC(C)C)c1O`?
MIC (Plasmodium falciparum): 220 µM (≈ 92.5 µg/mL); MIC (Staphylococcus aureus): > 500 µM; MIC (Enterococcus faecium): > 500 µM

With `CC1=CC(=O)C=C(CC[C@](C)(O)CCC[C@H](C)CCC[C@H](C)CCCC(C)C)C1=O` as the compound, how does the IC50 (Plasmodium falciparum) read?
Its IC50 is 10 µM.

And the MIC (Staphylococcus aureus)?
Its MIC is over 500 µM.

And the MIC (Enterococcus faecium)?
Its MIC is over 500 µM.

And the MIC (Candida albicans)?
Its MIC is over 500 µM.

`CC(C)=CCC[C@@](C)(O)[C@@H]1CC/C(C)=C/CC/C(C)=C/Cc2cc(ccc2O)C(=O)O1` [CALLOPHYCOLIDE A] was tested. Which IC50 (Plasmodium falciparum) did it give?
Its IC50 is 5.2 µM.

What about the IC50 (CCRF-CEM) of the same compound?
Its IC50 is 7.5 µM.

What about the IC50 (SHP77) of the same compound?
Its IC50 is 9.2 µM.

And the MIC (Staphylococcus aureus)?
Its MIC is 9.1 µM (≈ 3.88 µg/mL).

What about the MIC (Enterococcus faecium) of the same compound?
Its MIC is 9.1 µM (≈ 3.88 µg/mL).

And the MIC (Candida albicans)?
Its MIC is over 250 µM.
